Assay results as given in US10836775B2, “6,6-fused heteroaryl piperidine ether allosteric modulators of the M4 muscarinic acetylcholine receptor” (Merck Sharp & Dohme Corp., priority 2016, dated 2020).

Target: T1, human M4 muscarinic acetylcholine receptor (Homo sapiens, UniProt P08173)
T1 construct: expressed in transfected cells; host or cells: CHO-K1
T1 sequence (P08173 1-479): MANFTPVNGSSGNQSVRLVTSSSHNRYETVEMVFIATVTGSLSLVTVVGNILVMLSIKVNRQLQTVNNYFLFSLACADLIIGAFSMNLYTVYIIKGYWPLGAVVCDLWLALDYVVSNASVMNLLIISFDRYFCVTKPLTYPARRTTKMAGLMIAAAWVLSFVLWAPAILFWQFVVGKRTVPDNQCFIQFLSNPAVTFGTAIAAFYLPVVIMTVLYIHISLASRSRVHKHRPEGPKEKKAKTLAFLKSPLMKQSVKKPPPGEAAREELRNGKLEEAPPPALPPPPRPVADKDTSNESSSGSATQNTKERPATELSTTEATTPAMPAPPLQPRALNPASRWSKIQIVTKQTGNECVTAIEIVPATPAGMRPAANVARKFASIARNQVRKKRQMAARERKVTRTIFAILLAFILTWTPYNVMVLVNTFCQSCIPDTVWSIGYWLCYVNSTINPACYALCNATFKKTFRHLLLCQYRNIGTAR
Assay: human FLIPR-based M4 PAM assay (CHO-K1 cells, human M4 receptor and Gαqi5, calcium dye fluorescence, acetylcholine at 20% of maximum)
Assay type: cell-based
Settings: inflection point (IP) of 4 parameter logistic dose response curve; CHO-K1 cells with human M4 receptor and Gαqi5; FLIPR Tetra
Procedure: In a typical experiment the M4 muscarinic acetylcholine receptor modulating activity of the compounds of the present invention was determined in accordance with the following experimental method. […] On the day of assay, growth medium is removed, the cells are washed 2 times with wash buffer, and cells are incubated in dye loading buffer at 37° C., 5% CO2 for ˜1 hour. […] Next, 10 uL of acetylcholine is added (final concentration calculated so as to achieve 20% of the maximum acetycholine response), and the fluorescence reading is continued for 3.5 min. In some cases, a third addition of acetylcholine (final concentration calculated to achieve 70% of the maximal acetylcholine response) is performed. The resulting dose response curves are fit to a 4 parameter logistic equation and the final result is determined as the inflection point (IP) of the curve
CHO-K1 cells stably transfected with human M4 receptor and chimeric G-protein Gαqi5 are thawed from liquid N2 storage, resuspended in growth medium, plated in black, clear bottom 384 well plates, and incubated 16-20 hours at 37° C., 5% CO2.
On the day of assay, growth medium is removed, the cells are washed 2 times with wash buffer, and cells are incubated in dye loading buffer at 37° C., 5% CO2 for ˜1 h. […] Next, 10 uL of acetylcholine is added (final concentration calculated so as to achieve 20% of the maximum acetycholine response), and the fluorescence reading is continued for 3.5 min. In some cases, a third addition of acetylcholine (final concentration calculated to achieve 70% of the maximal acetylcholine response) is performed.

| EC50 [nM] | SMILES |
| --- | --- |
| 52 | Cc1cc2c(=O)[nH]c(=O)[nH]c2nc1N1CCC(OCC2CC2)CC1 [Example 33, 7-(4-(cyclopropyl-methoxy)piperidin-1-yl)-6-methylpyrido[2,3-d]pyrimidine-2,4(1H,3H)-dione] |
| 361 | Cc1cc2c(=O)[nH]c(=O)[nH]c2nc1N1CCC(OCC2CCCCC2)CC1 [Example 34, 7-(4-(cyclohexyl-methoxy)piperidin-1-yl)-6-methylpyrido[2,3-d]pyrimidine-2,4(1H,3H)-dione] |
| 38 | COc1ccc(OC2CCN(c3nc4occc(=O)c4cc3C)CC2)cn1 [Example 35, 7-(4-((6-methoxypyridin-3-yl)oxy)piperidin-1-yl)-6-methyl-4H-pyrano[2,3-b]pyridin-4-one] |
| 71 | CCc1cc2c(=O)[nH]ncc2nc1N1CCC(Oc2ccc(OC)nc2)CC1 [Example 37, 3-ethyl-2-(4-((6-methoxypyridin-3-yl)oxy)piperidin-1-yl)pyrido[2,3-d]pyridazin-5(6H)-one] |
| 112 | Cc1cc2c(=O)[nH]c(=O)[nH]c2nc1N1CCC(OCC2CCCC2)CC1 [Example 38, 7-(4-(cyclopentyl-methoxy)piperidin-1-yl)-6-methylpyrido[2,3-d]pyrimidine-2,4(1H,3H)-dione] |
| 32 | COCc1nc2nc(N3CCC(Oc4cccc(C#N)c4)CC3)c(C)cc2c(=O)[nH]1 [Example 39, 3-((1-(2-(methoxymethyl)-6-methyl-4-oxo-3,4-dihydropyrido[2,3-d]pyrimidin-7-yl)piperidin-4-yl)oxy)benzonitrile] |
| 155 | COc1ccc(OC2CCN(c3nc4nc(C)n(C)c(=O)c4cc3C)CC2)cn1 [Example 40, 7-(4-((6-methoxypyridin-3-yl)oxy)piperidin-1-yl)-2,3,6-trimethyl-pyrido[2,3-d]pyrimidin-4(3H)-one] |
| 100 | COc1ccc(OC2CCN(c3nc4oc(C)cc(=O)c4cc3C)CC2)cn1 [Example 41, 7-(4-((6-methoxypyridin-3-yl)oxy)piperidin-1-yl)-2,6-dimethyl-4H-pyrano[2,3-b]pyridin-4-one] |
| 110 | COc1ccc(OC2CCN(c3nc4cnn(CCO)c(=O)c4cc3C)CC2)cn1 [Example 42, 6-(2-Hydroxyethyl)-2-(4-((6-methoxypyridin-3-yl)oxy)piperidin-1-yl)-3-methylpyrido[2,3-d]pyridazin-5(6H)-one] |
| 133 | Cc1cc2c(=O)n(CCO)ncc2nc1N1CCC(OCC2(C)CC2)CC1 [Example 43, 6-(2-hydroxyethyl)-3-methyl-2-(4-((1-methylcyclopropyl)methoxy)piperidin-1-yl)pyrido[2,3-d]pyridazin-5(6H)-one] |
| 135 | COc1ccc(OC2CCN(c3nc4ncn(C)c(=O)c4cc3C)CC2)cn1 [Example 44, 7-(4-((6-Methoxypyridin-3-yl)oxy)piperidin-1-yl)-3,6-dimethylpyrido[2,3-d]pyrimidin-4(3H)-one] |
| 361 | Cc1cc2c(=O)n(C)c(C)nc2nc1N1CCC(Oc2cnc3c(c2)COC3)CC1 [Example 45, 7-(4-((5,7-dihydrofuro[3,4-b]pyridin-3-yl)oxy)piperidin-1-yl)-2,3,6-trimethyl-pyrido[2,3-d]pyrimidin-4(3H)-one] |
| 587 | COc1ccc(OC2CCN(c3nc4c(cc3C)CCNC4=O)CC2)cn1 [Example 46, 2-(4-((6-Methoxypyridin-3-yl)oxy)piperidin-1-yl)-3-methyl-6,7-dihydro-1,7-naphthyridin-8(51H)-one] |
| 78 | COc1ccc(OC2CCN(c3nc4[nH]c(=O)oc(=O)c4cc3C)CC2)cn1 [Example 47, 7-(4-((6-Methoxypyridin-3-yl)oxy)piperidin-1-yl)-6-methyl-2H-pyrido[2,3-d][1,3]oxazine-2,4(1H)-dione] |
| 272 | COc1ccc(OC2CCN(c3nc4c(cc3C)CNC(=O)N4)CC2)cn1 [Example 48, 7-(4-((6-Methoxypyridin-3-yl)oxy)piperidin-1-yl)-6-methyl-3,4-dihydropyrido[2,3-d]pyrimidin-2(1H)-one] |
| 210 | COc1ccc(OC2CCN(c3nc4c(cnc(=O)n4C)cc3C)CC2)cn1 [Example 49, 7-(4-((6-Methoxypyridin-3-yl)oxy)piperidin-1-yl)-1,6-dimethylpyrido[2,3-d]pyrimidin-2(1H)-one] |
| 469 | COc1ccc(OC2CCN(c3nc4[nH]c(=N)[nH]c(=O)c4cc3C)CC2)cn1 [Example 50, 2-Imino-7-(4-((6-methoxypyridin-3-yl)oxy)piperidin-1-yl)-6-methyl-2,3-dihydropyrido[2,3-d]pyrimidin-4(1H)-one] |
| 46 | COc1ccc(OC2CCN(c3nc4cnn(CO)c(=O)c4cc3C)CC2)cn1 [Example 51, 6-(Hydroxymethyl)-2-(4-((6-methoxypyridin-3-yl)oxy)piperidin-1-yl)-3-methylpyrido[2,3-d]pyridazin-5(6H)-one] |
| 15 | COc1ccc(OC2CCN(c3nc4oc(=O)[nH]c(=O)c4cc3C)CC2)cn1 [Example 52, 7-(4-((6-Methoxypyridin-3-yl)oxy)piperidin-1-yl)-6-methyl-2H-pyrido[3,2-e][1,3]oxazine-2,4(3H)-dione] |
| 260 | COc1ccc(OC2CCN(c3nc4c(=O)[nH][nH]c(=O)c4cc3C)CC2)cn1 [Example 53, 2-(4-((6-Methoxypyridin-3-yl)oxy)piperidin-1-yl)-3-methyl-6,7-dihydropyrido[2,3-d]pyridazine-5,8-dione] |
| 85 | COc1ccc(OC2CCN(c3nc4ccoc(=O)c4cc3C)CC2)cn1 [Example 54, 2-(4-((6-Methoxypyridin-3-yl)oxy)piperidin-1-yl)-3-methyl-5H-pyrano[4,3-b]pyridin-5-one] |
| 70 | COc1ccc(OC2CCN(c3nc4cc(C)oc(=O)c4cc3C)CC2)cn1 [Example 55, 2-(4-((6-Methoxypyridin-3-yl)oxy)piperidin-1-yl)-3,7-dimethyl-5H-pyrano[4,3-b]pyridin-5-one] |

| SMILES | EC50 [nM] |
| --- | --- |
| Cc1cc2c(=O)[nH]c(=O)[nH]c2nc1N1CCC(OCC(C)C)CC1 [Example 36, 7-(4-isobutoxy-piperidin-1-yl)-6-methylpyrido[2,3-d]pyrimidine-2,4(1H,3H)-dione] | 138 |
